{
  "source": "paper PMC5500991",
  "about": "“Substituted arylsulphonamides as inhibitors of perforin-mediated lysis” (European Journal of Medicinal Chemistry, 2017)",
  "note": "Where a name gives a salt, the structure may show the parent alone.",
  "data": [
    {"smiles": "COc1ccccc1S(=O)(=O)Nc1cncc(-c2ccc(-c3ccc4c(c3)CN(C)C4=O)s2)c1", "note": "[Compound 37, 2-Methoxy-N-(5-(5-(2-methyl-1-oxoisoindolin-5-yl)thiophen-2-yl)pyridin-3-yl)benzenesulfonamide]", "values": [
      {"measurement": "melting point", "value": "273 to 276", "unit": "°C"}
    ]},
    {"smiles": "COC(=O)c1cccc(S(=O)(=O)Nc2cncc(-c3ccc(-c4ccc5c(c4)CN(C)C5=O)s3)c2)c1", "note": "[Compound 52, Methyl 3-(N-(5-(5-(2-methyl-1-oxoisoindolin-5-yl)thiophen-2-yl)pyridin-3-yl)sulfamoyl)benzoate]", "values": [
      {"measurement": "melting point", "value": "250 to 254", "unit": "°C"}
    ]},
    {"smiles": "Cc1cc(C)n(-c2ccc(S(=O)(=O)Nc3cncc(-c4ccc(-c5ccc6c(c5)CN(C)C6=O)s4)c3)cc2)n1", "note": "[Compound 72, 4-(3,5-Dimethyl-1H-pyrazol-1-yl)-N-(5-(5-(2-methyl-1-oxoisoindolin-5-yl)thiophen-2-yl)pyridin-3-yl)benzenesulfonamide]", "values": [
      {"measurement": "melting point", "value": "265 to 268", "unit": "°C"}
    ]},
    {"smiles": "Cc1ncsc1S(=O)(=O)Nc1cncc(-c2ccc(-c3ccc4c(c3)CN(C)C4=O)s2)c1", "note": "[Compound 74, 4-Methyl-N-(5-(5-(2-methyl-1-oxoisoindolin-5-yl)thiophen-2-yl)pyridin-3-yl)thiazole-5-sulphonamide]", "values": [
      {"measurement": "melting point", "value": "277 to 280", "unit": "°C"}
    ]},
    {"smiles": "COc1ccc(-c2ccc(-c3ccc4c(c3)CN(C)C4=O)s2)cc1S(=O)(=O)Nc1ccccn1", "note": "(as salt: sodium) [Compound 19, Sodium ((2-methoxy-5-(5-(2-methyl-1-oxoisoindolin-5-yl)thiophen-2-yl)phenyl)sulfonyl)(pyridin-2-yl)amide]", "values": [
      {"measurement": "melting point", "value": "322 to 325", "unit": "°C"}
    ]},
    {"smiles": "CN1Cc2cc(-c3ccc(-c4cncc(NS(=O)(=O)c5ccccc5C#N)c4)s3)ccc2C1=O", "note": "[Compound 48, 2-Cyano-N-(5-(5-(2-methyl-1-oxoisoindolin-5-yl)thiophen-2-yl)pyridin-3-yl)benzenesulfonamide]", "values": [
      {"measurement": "melting point", "value": "> 310", "unit": "°C"}
    ]},
    {"smiles": "Cc1ccc(S(=O)(=O)Nc2cncc(-c3ccc(-c4ccc5c(c4)CN(C)C5=O)s3)c2)cc1Cl", "note": "[Compound 63, 3-Chloro-4-methyl-N-(5-(5-(2-methyl-1-oxoisoindolin-5-yl)thiophen-2-yl)pyridin-3-yl)benzenesulfonamide]", "values": [
      {"measurement": "melting point", "value": "277 to 279", "unit": "°C"}
    ]},
    {"smiles": "COc1ccc(S(=O)(=O)Nc2cncc(-c3ccc(-c4ccc5c(c4)CN(C)C5=O)s3)c2)cc1", "note": "[Compound 39, 4-Methoxy-N-(5-(5-(2-methyl-1-oxoisoindolin-5-yl)thiophen-2-yl)pyridin-3-yl)benzenesulfonamide]", "values": [
      {"measurement": "melting point", "value": "254 to 258", "unit": "°C"}
    ]},
    {"smiles": "CN1Cc2cc(-c3ccc(-c4cncc(NS(=O)(=O)c5ccsc5)c4)s3)ccc2C1=O", "note": "[Compound 69, N-(5-(5-(2-Methyl-1-oxoisoindolin-5-yl)thiophen-2-yl)pyridin-3-yl)thiophene-3-sulfonamide]", "values": [
      {"measurement": "melting point", "value": "> 300", "unit": "°C"}
    ]},
    {"smiles": "CN1Cc2cc(-c3ccc(-c4cncc(NS(=O)(=O)c5ccc(Br)cc5)c4)s3)ccc2C1=O", "note": "[Compound 34, 4-Bromo-N-(5-(5-(2-methyl-1-oxoisoindolin-5-yl)thiophen-2-yl)pyridin-3-yl)benzenesulfonamide]", "values": [
      {"measurement": "melting point", "value": "276 to 279", "unit": "°C"}
    ]},
    {"smiles": "CN1Cc2cc(-c3ccc(-c4cncc(NS(=O)(=O)c5cccc(Br)c5)c4)s3)ccc2C1=O", "note": "[Compound 33, 3-Bromo-N-(5-(5-(2-methyl-1-oxoisoindolin-5-yl)thiophen-2-yl)pyridin-3-yl)benzenesulfonamide]", "values": [
      {"measurement": "melting point", "value": "303 to 307", "unit": "°C"}
    ]},
    {"smiles": "CN1Cc2cc(-c3ccc(-c4cncc(NS(=O)(=O)c5ccccc5F)c4)s3)ccc2C1=O", "note": "[Compound 22, 2-Fluoro-N-(5-(5-(2-methyl-1-oxoisoindolin-5-yl)thiophen-2-yl)pyridin-3-yl)benzenesulfonamide]", "values": [
      {"measurement": "melting point", "value": "289 to 292", "unit": "°C"}
    ]},
    {"smiles": "Cc1ccc(NS(=O)(=O)c2ccccn2)cc1-c1ccc(-c2ccc3c(c2)CN(C)C3=O)s1", "note": "[Compound 15, N-(4-Methyl-3-(5-(2-methyl-1-oxoisoindolin-5-yl)thiophen-2-yl)phenyl)pyridine-2-sulfonamide]", "values": [
      {"measurement": "melting point", "value": "274 to 277", "unit": "°C"}
    ]},
    {"smiles": "CN1Cc2cc(-c3ccc(-c4cncc(NS(=O)(=O)c5ccccn5)c4)s3)ccc2C1=O", "note": "[Compound 66, N-(5-(5-(2-Methyl-1-oxoisoindolin-5-yl)thiophen-2-yl)pyridin-3-yl)pyridine-2-sulfonamide]", "values": [
      {"measurement": "melting point", "value": "272 to 275", "unit": "°C"}
    ]},
    {"smiles": "CN1Cc2cc(-c3ccc(-c4cncc(NS(=O)(=O)c5ccc(Cl)cc5)c4)s3)ccc2C1=O", "note": "[Compound 29, 4-Chloro-N-(5-(5-(2-methyl-1-oxoisoindolin-5-yl)thiophen-2-yl)pyridin-3-yl)benzenesulfonamide]", "values": [
      {"measurement": "melting point", "value": "281 to 284", "unit": "°C"}
    ]},
    {"smiles": "CN1Cc2cc(-c3ccc(-c4cncc(NS(=O)(=O)c5ccc(-c6ccno6)s5)c4)s3)ccc2C1=O", "note": "[Compound 71, 5-(Isoxazol-5-yl)-N-(5-(5-(2-methyl-1-oxoisoindolin-5-yl)thiophen-2-yl)pyridin-3-yl)thiophene-2-sulfonamide]", "values": [
      {"measurement": "melting point", "value": "245 to 249", "unit": "°C"}
    ]},
    {"smiles": "CN1Cc2cc(-c3ccc(-c4cncc(NS(=O)(=O)c5ccccc5OC(F)(F)F)c4)s3)ccc2C1=O", "note": "[Compound 41, N-(5-(5-(2-Methyl-1-oxoisoindolin-5-yl)thiophen-2-yl)pyridin-3-yl)-2-(trifluoromethoxy)benzenesulfonamide]", "values": [
      {"measurement": "melting point", "value": "251 to 254", "unit": "°C"}
    ]},
    {"smiles": "CN1Cc2cc(-c3ccc(-c4cncc(NS(=O)(=O)c5cccs5)c4)s3)ccc2C1=O", "note": "[Compound 68, N-(5-(5-(2-Methyl-1-oxoisoindolin-5-yl)thiophen-2-yl)pyridin-3-yl)thiophene-2-sulfonamide]", "values": [
      {"measurement": "melting point", "value": "300 to 304", "unit": "°C"}
    ]},
    {"smiles": "CN1Cc2cc(-c3ccc(-c4cncc(NS(=O)(=O)c5ccc(C(F)(F)F)cc5)c4)s3)ccc2C1=O", "note": "[Compound 46, N-(5-(5-(2-Methyl-1-oxoisoindolin-5-yl)thiophen-2-yl)pyridin-3-yl)-4-(trifluoromethyl)benzenesulfonamide]", "values": [
      {"measurement": "melting point", "value": "282 to 284", "unit": "°C"}
    ]},
    {"smiles": "CN1Cc2cc(-c3ccc(-c4cncc(NS(=O)(=O)c5cccc(Cl)c5)c4)s3)ccc2C1=O", "note": "[Compound 28, 3-Chloro-N-(5-(5-(2-methyl-1-oxoisoindolin-5-yl)thiophen-2-yl)pyridin-3-yl)benzenesulfonamide]", "values": [
      {"measurement": "melting point", "value": "291 to 295", "unit": "°C"}
    ]},
    {"smiles": "CCOC(=O)c1ccc(S(=O)(=O)Nc2cncc(-c3ccc(-c4ccc5c(c4)CN(C)C5=O)s3)c2)cc1", "note": "[Compound 54, Ethyl 4-(N-(5-(5-(2-methyl-1-oxoisoindolin-5-yl)thiophen-2-yl)pyridin-3-yl)sulfamoyl)benzoate]", "values": [
      {"measurement": "melting point", "value": "272 to 275", "unit": "°C"}
    ]},
    {"smiles": "CN1Cc2cc(-c3ccc(-c4cncc(NS(=O)(=O)c5cccc(F)c5)c4)s3)ccc2C1=O", "note": "[Compound 23, 3-Fluoro-N-(5-(5-(2-methyl-1-oxoisoindolin-5-yl)thiophen-2-yl)pyridin-3-yl)benzenesulfonamide]", "values": [
      {"measurement": "melting point", "value": "292 to 294", "unit": "°C"}
    ]},
    {"smiles": "CN1Cc2cc(-c3ccc(-c4cncc(NS(=O)(=O)c5ccc(S(C)(=O)=O)cc5)c4)s3)ccc2C1=O", "note": "(as salt: sodium) [Compound 57, Sodium (5-(5-(2-methyl-1-oxoisoindolin-5-yl)thiophen-2-yl)pyridin-3-yl)((4-(methylsulfonyl)phenyl)sulfonyl)amide]", "values": [
      {"measurement": "melting point", "value": "> 300", "unit": "°C"}
    ]},
    {"smiles": "COC(=O)c1ccc(S(=O)(=O)Nc2cncc(-c3ccc(-c4ccc5c(c4)CN(C)C5=O)s3)c2)cc1", "note": "[Compound 53, Methyl 4-(N-(5-(5-(2-methyl-1-oxoisoindolin-5-yl)thiophen-2-yl)pyridin-3-yl)sulfamoyl)benzoate]", "values": [
      {"measurement": "melting point", "value": "269 to 272", "unit": "°C"}
    ]},
    {"smiles": "CN1Cc2cc(-c3ccc(-c4cccc(S(=O)(=O)Nc5ccccn5)c4)s3)ccc2C1=O", "note": "(as salt: sodium) [Compound 14, sodium ((3-(5-(2-methyl-1-oxoisoindolin-5-yl)thiophen-2-yl)phenyl)sulfonyl)(pyridin-2-yl)amide]", "values": [
      {"measurement": "melting point", "value": "302 to 306", "unit": "°C"}
    ]},
    {"smiles": "CN1Cc2cc(-c3ccc(-c4cncc(NS(=O)(=O)c5ccc(OC(F)(F)F)cc5)c4)s3)ccc2C1=O", "note": "[Compound 43, N-(5-(5-(2-Methyl-1-oxoisoindolin-5-yl)thiophen-2-yl)pyridin-3-yl)-4-(trifluoromethoxy)benzenesulfonamide]", "values": [
      {"measurement": "melting point", "value": "293 to 296", "unit": "°C"}
    ]},
    {"smiles": "CN1Cc2cc(-c3ccc(-c4cncc(NS(=O)(=O)c5ccccc5)c4)s3)ccc2C1=O", "note": "[Compound 21, N-(5-(5-(2-Methyl-1-oxoisoindolin-5-yl)thiophen-2-yl)pyridin-3-yl)benzenesulphonamide]", "values": [
      {"measurement": "melting point", "value": "300 to 303", "unit": "°C"}
    ]},
    {"smiles": "Cc1cc(F)ccc1S(=O)(=O)Nc1cncc(-c2ccc(-c3ccc4c(c3)CN(C)C4=O)s2)c1", "note": "[Compound 61, 4-Fluoro-2-methyl-N-(5-(5-(2-methyl-1-oxoisoindolin-5-yl)thiophen-2-yl)pyridin-3-yl) benzenesulphonamide]", "values": [
      {"measurement": "melting point", "value": "280 to 283", "unit": "°C"}
    ]},
    {"smiles": "CN1Cc2cc(-c3ccc(-c4cncc(NS(=O)(=O)c5ccc(I)cc5)c4)s3)ccc2C1=O", "note": "[Compound 36, 4-Iodo-N-(5-(5-(2-methyl-1-oxoisoindolin-5-yl)thiophen-2-yl)pyridin-3-yl)benzenesulfonamides]", "values": [
      {"measurement": "melting point", "value": "295 to 298", "unit": "°C"}
    ]},
    {"smiles": "CN1Cc2cc(-c3ccc(-c4cncc(NS(=O)(=O)c5ccc(C(F)(F)F)cc5Cl)c4)s3)ccc2C1=O", "note": "[Compound 64, 2-Chloro-N-(5-(5-(2-methyl-1-oxoisoindolin-5-yl)thiophen-2-yl)pyridin-3-yl)-4-(trifluoromethyl)benzenesulfonamide]", "values": [
      {"measurement": "melting point", "value": "292 to 295", "unit": "°C"}
    ]},
    {"smiles": "CN1Cc2cc(-c3ccc(-c4cncc(NS(=O)(=O)c5cccc(Cl)c5F)c4)s3)ccc2C1=O", "note": "[Compound 60, 3-Chloro-2-fluoro-N-(5-(5-(2-methyl-1-oxoisoindolin-5-yl)thiophen-2-yl)pyridin-3-yl)benzenesulfonamide]", "values": [
      {"measurement": "melting point", "value": "269 to 272", "unit": "°C"}
    ]},
    {"smiles": "CN1Cc2cc(-c3ccc(-c4cncc(N(C)S(=O)(=O)c5ccc(F)cc5F)c4)s3)ccc2C1=O", "note": "[Compound 6, 2,4-Difluoro-N-methyl-N-(5-(5-(2-methyl-1-oxoisoindolin-5-yl)thiophen-2-yl)pyridin-3-yl)-benzenesulphonamide]", "values": [
      {"measurement": "melting point", "value": "200 to 202", "unit": "°C"}
    ]},
    {"smiles": "CN1Cc2cc(-c3ccc(-c4cncc(NS(=O)(=O)c5ccccc5S(C)(=O)=O)c4)s3)ccc2C1=O", "note": "[Compound 56, N-(5-(5-(2-Methyl-1-oxoisoindolin-5-yl)thiophen-2-yl)pyridin-3-yl)-2-(methylsulfonyl)benzenesulfonamide]", "values": [
      {"measurement": "melting point", "value": "269 to 272", "unit": "°C"}
    ]}
  ]
}
